Measured values: patent US11098055B2, “Ester ACC inhibitors and uses thereof” (Gilead Apollo, LLC, priority 2015, dated 2021)
pIC50: −log10 of the molar value. In brackets after ≈: the same amount, converted by molar mass. Read-outs that look alike come from different tables or passages of the source.

Assays:
[1] = system: Fusarium moniliforme (Fm); experiment: Growth inhibition assay of fungal pathogens; type: cell-based; details: Fusarium verticillioides, 48 h, read-out: Concentration at 90% Inhibition Fm
Method: (§1) Compounds of the present invention were evaluated in a growth inhibition assay to determine the ability to control the growth of fungal pathogens, such as Botrtyis cinerea (Bc), Collectotrichum graminicola (Cg), Diplodia maydis (Dm), Fusarium moniliforme (Fm), Fusarium virguhforme (Fv), Phytophthora capsici (Pc), Rhizoctonia solani (Rs), and Septoria tritici (St). Compounds to be tested were dissolved in DMSO at 2.5 mg/ml to produce compound stock solutions (“stocks”). Stocks were diluted with DMSO by a five-fold dilution in a 96-well stock plate, and two sets of final concentrations of 50, 10, and 2 ppm or 2, 0.4, and 0.08 ppm were obtained in vitro. A set of positive controls was also prepared, with various concentrations of Soraphen (2, 0.4, and 0.08 ppm), Metalaxyl (1.1, 0.22, and 0.04 ppm), and Metconazole (2, 0.4, and 0.08 ppm or 0.2, 0.04, and 0.008 ppm) after the five-fold dilutions. Negative controls on each plate included 2% DMSO, water, and a blank (media+2% DMSO). Fungal spores were isolated from previously sub-cultured plates of Botrtyis cinerea (Bc), Collectotrichum graminicola (Cg), Diplodia maydis (Dm), Fusarium moniliforme (Fm), Fusarium virguliforme (Fv), Phytophthora capsici (Pc), and Septoria tritici (St). The isolated spores were diluted to individual concentrations with a 17% V8 liquid media. For Rhizoctonia solani (Rs) and Pythium irregulare, 1.5 mm mycelial plugs were used in place of spores and ¼ Potato Dextrose Broth (PDB) was used for dilution. The spore concentrations and plug sizes were based on growth curves generated at 48 hours for each pathogen. In a second 96-well plate, the spores or mycelial plugs, media, diluted compound solutions, and controls were combined. Once the compound was added, a true final concentration of compound in each well was measured by an OD600 reading, which adjusted for any compound precipitation that might have occurred in the well. Plate readings were repeated at both 24 and 48 hours. The blank negative control was used as a background subtraction. Additional visual ratings were performed at both 24 and 48 hours for checking on precipitation and confirming efficacy. Visual and OD600 ratings of the compounds at 48 hours were compared to the 2% DMSO negative control, and the percent of pathogen growth inhibition was determined based on those values.

[2] = molecular target: fACC2 (UniProt Q00955); experiment: In vitro ACC2 inhibition assay (ADP-Glo), fungal ACC2; type: biochemical
Sequence of fACC2 (Q00955 whole entry): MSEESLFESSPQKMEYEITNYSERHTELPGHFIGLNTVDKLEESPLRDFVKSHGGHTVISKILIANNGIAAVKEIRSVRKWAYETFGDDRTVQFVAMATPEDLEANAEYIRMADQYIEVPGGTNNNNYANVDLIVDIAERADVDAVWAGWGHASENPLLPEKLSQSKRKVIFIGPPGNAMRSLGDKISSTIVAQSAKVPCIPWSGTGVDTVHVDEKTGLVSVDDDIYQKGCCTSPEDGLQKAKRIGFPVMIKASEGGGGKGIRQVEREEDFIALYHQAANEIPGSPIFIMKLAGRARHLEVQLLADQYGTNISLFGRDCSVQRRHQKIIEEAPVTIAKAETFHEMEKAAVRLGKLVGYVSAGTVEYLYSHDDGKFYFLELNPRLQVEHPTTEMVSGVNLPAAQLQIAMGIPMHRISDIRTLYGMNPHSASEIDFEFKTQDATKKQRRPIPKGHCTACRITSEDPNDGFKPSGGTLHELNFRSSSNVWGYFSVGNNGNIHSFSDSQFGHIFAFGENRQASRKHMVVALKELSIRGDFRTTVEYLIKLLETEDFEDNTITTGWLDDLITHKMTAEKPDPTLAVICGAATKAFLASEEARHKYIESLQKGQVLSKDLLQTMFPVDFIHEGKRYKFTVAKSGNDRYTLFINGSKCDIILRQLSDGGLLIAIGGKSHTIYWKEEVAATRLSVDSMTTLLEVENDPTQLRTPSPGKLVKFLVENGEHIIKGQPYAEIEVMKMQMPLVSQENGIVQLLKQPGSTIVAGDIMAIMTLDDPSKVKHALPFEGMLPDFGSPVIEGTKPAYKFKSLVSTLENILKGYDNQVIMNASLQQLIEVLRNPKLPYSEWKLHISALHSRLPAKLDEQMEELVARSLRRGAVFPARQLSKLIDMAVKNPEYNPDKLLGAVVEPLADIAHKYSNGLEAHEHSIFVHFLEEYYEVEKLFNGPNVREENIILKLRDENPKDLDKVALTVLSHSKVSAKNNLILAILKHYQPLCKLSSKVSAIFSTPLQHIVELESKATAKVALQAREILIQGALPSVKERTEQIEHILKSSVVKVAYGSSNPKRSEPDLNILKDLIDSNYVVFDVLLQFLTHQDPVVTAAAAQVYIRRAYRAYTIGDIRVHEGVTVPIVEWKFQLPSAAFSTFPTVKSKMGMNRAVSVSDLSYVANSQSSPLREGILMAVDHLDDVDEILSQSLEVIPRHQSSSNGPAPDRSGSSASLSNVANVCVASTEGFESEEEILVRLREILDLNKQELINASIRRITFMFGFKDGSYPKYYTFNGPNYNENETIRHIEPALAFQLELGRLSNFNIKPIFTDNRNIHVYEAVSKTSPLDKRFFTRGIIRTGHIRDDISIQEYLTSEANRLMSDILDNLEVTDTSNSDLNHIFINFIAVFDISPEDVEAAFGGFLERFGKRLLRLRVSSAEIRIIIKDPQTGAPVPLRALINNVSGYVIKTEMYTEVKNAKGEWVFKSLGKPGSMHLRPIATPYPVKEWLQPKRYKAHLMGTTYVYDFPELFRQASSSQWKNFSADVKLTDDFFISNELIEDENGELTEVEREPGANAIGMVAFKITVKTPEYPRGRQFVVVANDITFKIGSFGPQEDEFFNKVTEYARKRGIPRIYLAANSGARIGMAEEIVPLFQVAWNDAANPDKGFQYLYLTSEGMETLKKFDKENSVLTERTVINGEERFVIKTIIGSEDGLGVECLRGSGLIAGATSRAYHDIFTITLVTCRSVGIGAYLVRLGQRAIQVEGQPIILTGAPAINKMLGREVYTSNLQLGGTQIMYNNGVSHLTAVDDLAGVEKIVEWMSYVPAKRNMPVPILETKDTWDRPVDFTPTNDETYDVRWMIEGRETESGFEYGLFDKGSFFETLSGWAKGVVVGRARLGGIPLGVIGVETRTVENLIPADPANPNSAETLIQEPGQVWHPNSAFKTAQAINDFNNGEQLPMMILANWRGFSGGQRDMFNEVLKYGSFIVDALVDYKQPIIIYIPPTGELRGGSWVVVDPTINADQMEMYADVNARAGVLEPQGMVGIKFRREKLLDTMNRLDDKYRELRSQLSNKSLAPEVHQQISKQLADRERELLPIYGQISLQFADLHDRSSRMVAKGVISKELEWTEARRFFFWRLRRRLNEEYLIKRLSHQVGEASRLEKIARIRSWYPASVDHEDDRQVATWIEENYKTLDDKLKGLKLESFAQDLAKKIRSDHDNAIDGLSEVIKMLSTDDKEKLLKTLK
Method: (§2) An exemplary procedure for the in vitro ACC inhibition assay, which can be used to determine the inhibitory action of compounds of the invention toward either human (hACC2) or fungal (fACC2) ACC2, follows. The ADP-Glo™ Kinase Assay kit from Promega was used. The ADP-Glo™ Kinase Assay is a luminescent ADP detection assay to measure enzymatic activity by quantifying the amount of ADP produced during an enzyme reaction. The assay is performed in two steps; first, after the enzyme reaction, an equal volume of ADP-Glo™ Reagent is added to terminate the reaction and deplete the remaining ATP. Second, the Kinase Detection Reagent is added to simultaneously convert ADP to ATP and allow the newly synthesized ATP to be measured using a luciferase/luciferin reaction. Luminescence can be correlated to ADP concentrations by using an ATP-to-ADP conversion curve. The detailed procedure is as follows. 50 μL of the compound being tested (600 μM in DMSO) was added to a 384-well dilution plate. The compound was diluted 1:3 in succession in DMSO for each row for 11 wells. 0.5 μL ACC2 working solution was added to 384-well white Optiplate assay plate. 0.5 μL diluted compound solution in each column from step 2 was added to assay plate, each row containing 2 replicates. For the last 2 rows, 0.5 μL negative control (DMSO) was added in one row and 0.5 μL positive control (compound I-97) in the other. The plates were incubated at room temperature for 15 minutes. 5 μL substrate working solution was added to each well to initiate reaction. Final ACC2 reaction concentrations consist of: 5 nM ACC2, 20 μM ATP, 20 μM acetyl-CoA, 12 mM NaHCO3, 0.01% Brij35, 2 mM DTT, 5% DMSO, test compound concentrations: 30 μM, 10 μM, 3.33 μM, 1.11 μM, 0.37 μM, 0.123 μM, 0.0411 μM, 0.0137 μM, 0.00457 μM, 0.00152 μM, and 0.00051 μM. Plates were incubated at room temperature for 60 minutes. 10 μL ADP glo reagent was added. Plates were incubated at room temperature for 40 minutes. 20 μL kinase detection reagent was added. Plates were incubated at room temperature for 40 minutes, and then read on a Perkin Elmer EnVision 2104 plate reader for luminescence as Relative Light Units (RLU).
(§3) Data for each concentration, as well as the positive and negative controls, were averaged, and the standard deviation calculated. Percent inhibition was calculated by the formula: 100×(average negative control−compound)/(average negative control−average positive control). The IC50 for each compound was calculated by fitting the data with a non-linear regression equation: Y=Bottom+(Top−Bottom)/(1+10^((Log IC50−X)*HillSlope)), where X is the log of compound concentration and Y is percent inhibition.

[3] = molecular target: hACC2 (Homo sapiens, UniProt O00763); experiment: In vitro ACC2 inhibition assay (ADP-Glo), human ACC2; type: biochemical
Sequence of hACC2 (O00763 whole entry): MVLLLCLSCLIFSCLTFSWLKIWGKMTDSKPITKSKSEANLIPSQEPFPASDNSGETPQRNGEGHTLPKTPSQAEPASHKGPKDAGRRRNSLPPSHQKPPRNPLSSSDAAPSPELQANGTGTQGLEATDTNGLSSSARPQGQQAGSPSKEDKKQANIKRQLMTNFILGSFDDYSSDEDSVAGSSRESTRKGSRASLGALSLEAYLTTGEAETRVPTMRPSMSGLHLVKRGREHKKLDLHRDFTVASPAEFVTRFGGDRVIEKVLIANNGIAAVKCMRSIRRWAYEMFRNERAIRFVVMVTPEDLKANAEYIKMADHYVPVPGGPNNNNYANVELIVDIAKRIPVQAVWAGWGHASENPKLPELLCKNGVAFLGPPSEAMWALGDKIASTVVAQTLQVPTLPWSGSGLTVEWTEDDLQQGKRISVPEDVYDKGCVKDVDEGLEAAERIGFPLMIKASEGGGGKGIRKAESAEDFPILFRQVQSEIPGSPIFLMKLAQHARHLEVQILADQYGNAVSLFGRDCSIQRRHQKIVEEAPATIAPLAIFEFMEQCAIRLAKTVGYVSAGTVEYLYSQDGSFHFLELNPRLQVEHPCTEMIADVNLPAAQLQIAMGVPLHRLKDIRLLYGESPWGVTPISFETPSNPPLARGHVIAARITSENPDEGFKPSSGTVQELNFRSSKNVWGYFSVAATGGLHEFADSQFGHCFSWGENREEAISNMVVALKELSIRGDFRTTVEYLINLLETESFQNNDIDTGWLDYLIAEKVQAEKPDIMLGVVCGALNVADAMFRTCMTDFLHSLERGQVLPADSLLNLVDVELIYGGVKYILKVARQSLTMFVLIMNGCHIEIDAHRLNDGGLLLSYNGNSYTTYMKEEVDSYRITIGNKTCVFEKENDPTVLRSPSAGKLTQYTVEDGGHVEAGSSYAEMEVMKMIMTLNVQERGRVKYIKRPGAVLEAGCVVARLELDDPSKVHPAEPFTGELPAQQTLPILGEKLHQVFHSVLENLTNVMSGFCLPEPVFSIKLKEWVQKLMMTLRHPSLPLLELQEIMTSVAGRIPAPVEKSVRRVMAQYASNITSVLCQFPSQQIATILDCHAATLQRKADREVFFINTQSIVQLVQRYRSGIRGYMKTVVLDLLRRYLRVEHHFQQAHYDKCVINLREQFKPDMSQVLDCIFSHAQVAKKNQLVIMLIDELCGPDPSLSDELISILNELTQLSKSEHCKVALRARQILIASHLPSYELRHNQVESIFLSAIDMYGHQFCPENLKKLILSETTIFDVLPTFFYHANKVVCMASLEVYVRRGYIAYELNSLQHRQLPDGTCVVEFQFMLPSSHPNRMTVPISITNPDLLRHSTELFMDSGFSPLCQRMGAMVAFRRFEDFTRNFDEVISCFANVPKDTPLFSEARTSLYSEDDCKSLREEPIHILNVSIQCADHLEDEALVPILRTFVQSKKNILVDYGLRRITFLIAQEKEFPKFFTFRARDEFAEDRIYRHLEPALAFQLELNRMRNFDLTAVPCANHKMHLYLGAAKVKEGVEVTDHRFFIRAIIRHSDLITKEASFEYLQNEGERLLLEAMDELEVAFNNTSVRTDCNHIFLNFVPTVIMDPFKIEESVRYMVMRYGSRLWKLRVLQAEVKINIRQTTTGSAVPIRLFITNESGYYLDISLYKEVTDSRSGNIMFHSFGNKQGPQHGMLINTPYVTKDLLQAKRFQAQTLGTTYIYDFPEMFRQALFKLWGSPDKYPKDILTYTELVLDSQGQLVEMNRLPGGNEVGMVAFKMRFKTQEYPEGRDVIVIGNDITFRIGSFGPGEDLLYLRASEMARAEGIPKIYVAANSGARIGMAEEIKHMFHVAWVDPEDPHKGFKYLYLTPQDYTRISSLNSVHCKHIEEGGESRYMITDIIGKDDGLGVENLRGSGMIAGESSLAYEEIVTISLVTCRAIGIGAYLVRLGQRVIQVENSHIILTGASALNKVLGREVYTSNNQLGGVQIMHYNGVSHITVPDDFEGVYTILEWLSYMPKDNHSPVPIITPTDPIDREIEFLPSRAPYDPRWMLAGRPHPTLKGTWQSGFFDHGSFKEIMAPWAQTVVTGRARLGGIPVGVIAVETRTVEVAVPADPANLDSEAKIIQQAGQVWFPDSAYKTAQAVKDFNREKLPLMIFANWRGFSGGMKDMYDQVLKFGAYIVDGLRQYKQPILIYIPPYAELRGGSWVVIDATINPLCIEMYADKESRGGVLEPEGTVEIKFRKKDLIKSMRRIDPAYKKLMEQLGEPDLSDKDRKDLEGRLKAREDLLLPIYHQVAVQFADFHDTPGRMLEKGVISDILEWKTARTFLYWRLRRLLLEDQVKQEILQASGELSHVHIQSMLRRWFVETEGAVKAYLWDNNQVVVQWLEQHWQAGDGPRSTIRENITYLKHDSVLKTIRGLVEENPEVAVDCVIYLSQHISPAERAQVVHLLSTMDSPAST
Method: as §2, §3

[4] = system: C. krusei ATCC 6258; experiment: Anti-Fungal (Candida) Activity Assay, broth microtiter MIC; type: cell-based, Candida krusei; details: Pichia kudriavzevii, ATCC6258, 48 h, 3 replicates, MIC read at 48 h
Method: (§4) Compounds of the present invention were evaluated in an Anti-Fungal Activity Assay. An exemplary procedure for the assay, which measures the susceptibility of various Candida species to anti-fungal compounds, follows. Compounds to be tested (including fluconazole and amphotericin B) were dissolved in DMSO to obtain a solution having a concentration of 1 mg/mL. These stock solutions were sterile filtered using a 0.22 um nylon syringe filter, then diluted in sterile water to achieve a final concentration of 128 μg/mL.
(§5) All species were grown from frozen stock by directly plating on to freshly prepared Sabouraud Dextrose agar (BD, Difco) and incubated overnight in ambient air at 35° C. for 24 h. A direct suspension was prepared in RPMI 1640+MOPS (Lonza, Biowhittaker) by taking individual colonies from the overnight cultures using sterile swabs soaked in sterile saline. The concentration of the suspension was determined using pre-determined standard curves. These suspensions were then diluted down to 5×10^3 CFU/mL to achieve a final concentration of 2.5×10^3 CFU/mL once added to the microtiter plate as per CLSI guidelines (M27-A3, Vol. 28 No. 14).
(§6) Broth microtiter MIC challenge plates were prepared following CLSI guidelines (M27-A3, Vol. 28 No. 14). The original CLSI guidelines focused on reading Candida MICs after 48 h of incubation. As reading after only 24 h offers a clear advantage of patient care, QC limits are being established for all drugs at 24 h. That being said there are no known interpretive breakpoints for amphotericin B at 24 h and the current fluconazole interpretive breakpoints are based on a 48 h reading. The MIC for the test compounds were recorded at 48 h. All MIC determinations were achieved by visually comparing the growth found in the antibiotic challenged wells to that of the growth control.

[5] = system: C. albicans ATCC 90028; experiment: as above; type: cell-based; details: ATCC90028, 48 h, 3 replicates, MIC read at 48 h
Method: as §4, §5, §6

[6] = system: C. parapsilosis ATCC 22019; experiment: as above; type: cell-based; details: Lodderomyces parapsilosis, ATCC22019, 48 h, 3 replicates, MIC read at 48 h
Method: as §4, §5, §6

[7] = system: Phytophthora capsici (Pc); experiment: Growth inhibition assay of fungal pathogens; type: cell-based; details: 48 h, Table 4b, read-out: Concentration at 90% Inhibition Pc
Method: as §1

[8] = system: Septoria tritici (St); experiment: Growth inhibition assay of fungal pathogens; type: cell-based; details: Zymoseptoria tritici, 48 h, Table 4b, read-out: Concentration at 90% Inhibition St
Method: as §1

[9] = system: Rhizoctonia solani (Rs); experiment: Growth inhibition assay of fungal pathogens; type: cell-based; details: 48 h, Table 4b, read-out: Concentration at 90% Inhibition Rs
Method: as §1

[10] = system: Diplodia maydis (Dm); experiment: Growth inhibition assay of fungal pathogens; type: cell-based; details: Stenocarpella maydis, 48 h, Table 4b, read-out: Concentration at 90% Inhibition Dm
Method: as §1

[11] = system: Fusarium virguliforme (Fv); experiment: Growth inhibition assay of fungal pathogens; type: cell-based; details: 48 h, Table 4b, read-out: Concentration at 90% Inhibition Fv
Method: as §1

[12] = system: Botrtyis cinerea (Bc); experiment: Growth inhibition assay of fungal pathogens; type: cell-based; details: 48 h, Table 4b, read-out: Concentration at 90% Inhibition Bc
Method: as §1

[13] = system: Collectotrichum graminicola (Cg); experiment: Growth inhibition assay of fungal pathogens; type: cell-based; details: 48 h, Table 4b, read-out: Concentration at 90% Inhibition Cg
Method: as §1

[14] = system: ACC1; details: enzyme isolated from rat, mouse, monkey and human; cited from earlier work
[15] = system: ACC2; details: enzyme isolated from rat, mouse, monkey and human; cited from earlier work

Structure (SMILES): CCNC(=O)C(C)(C)n1c(=O)c2c(C)c(C(=O)OCC)sc2n(C[C@H](OC2CCOCC2)c2ccccc2OC)c1=O [Compound I-1, ethyl (R)-3-(1-(ethylamino)-2-methyl-1-oxopropan-2-yl)-1-(2-(2-methoxyphenyl)-2-((tetrahydro-2H-pyran-4-yl)oxy)ethyl)-5-methyl-2,4-dioxo-1,2,3,4-tetrahydrothieno[2,3-d]pyrimidine-6-carboxylate]
- IC90 ([1]; Table 4a): ≥ 50 µg/mL
- IC90 ([1]; Table 4b): ≥ 50 µg/mL
- pIC50 ([2]; Table 2a): 8.52 to 9.22
- pIC50 ([2]; Table 2b (additional results)): 8.52 to 9.52
- pIC50 ([3]; Table 2a): 8.00 to 8.52
- pIC50 ([3]; Table 2b (additional results)): 8.00 to 8.52
- MIC ([4]; Table 3a): 0.25 to 1 µg/mL (≈ 0.415 to 1.66 µM)
- MIC ([4]; Table 3b (additional results)): 2.1 to 4 µg/mL (≈ 3.49 to 6.65 µM)
- MIC ([5]; Table 3a): 0.25 to 1 µg/mL (≈ 0.415 to 1.66 µM)
- MIC ([5]; Table 3b (additional results)): 0.25 to 1 µg/mL (≈ 0.415 to 1.66 µM)
- MIC ([6]; Table 3a): 1.1 to 2 µg/mL (≈ 1.83 to 3.32 µM)
- MIC ([6]; Table 3b (additional results)): 2.1 to 4 µg/mL (≈ 3.49 to 6.65 µM)

Structure (SMILES): CCOC(=O)c1sc2c(c1C)c(=O)n(C(C)(C)C(=O)NC(C)C)c(=O)n2CCc1cc(F)ccc1OCCC#N [Compound I-45, ethyl 1-(2-(2-cyanoethoxy)-5-fluorophenethyl)-3-(1-(isopropylamino)-2-methyl-1-oxopropan-2-yl)-5-methyl-2,4-dioxo-1,2,3,4-tetrahydro-thieno[2,3-d]pyrimidine-6-carboxylate]
- IC90 [7]: ≥ 50 µg/mL
- IC90 [8]: ≥ 50 µg/mL
- IC90 [9]: ≥ 50 µg/mL
- IC90 [10]: ≥ 50 µg/mL
- IC90 [11]: 2 µg/mL (≈ 3.49 µM)
- IC90 ([1]; Table 4b): 2 µg/mL (≈ 3.49 µM)
- IC90 [12]: 10 µg/mL (≈ 17.5 µM)
- IC90 [13]: ≥ 50 µg/mL
- pIC50 ([2]; Table 2b (additional results)): 8.00 to 8.52
- pIC50 ([3]; Table 2b (additional results)): ≤ 7.40

Structure (SMILES): O=C(c1c2ccccc2cc2ccccc12)N1CCC(N2CCC[C@@H](C(=O)N3CCOCC3)C2)CC1 [CP-640186]
- pIC50 [14]: ~7.22
- pIC50 [15]: ~7.22

Structure (SMILES): CCOC(=O)c1sc2c(c1C)c(=O)n([C@H](C)C(=O)N(C)C(C)C)c(=O)n2C[C@H](OCCO)c1cc(F)ccc1OC [Compound I-30, ethyl 1-((R)-2-(5-fluoro-2-methoxyphenyl)-2-(2-hydroxy-ethoxy)ethyl)-3-((R)-1-(isopropyl(methyl)amino)-1-oxopropan-2-yl)-5-methyl-2,4-dioxo-1,2,3,4-tetrahydrothieno[2,3-d]pyrimidine-6-carboxylate]
- pIC50 ([2]; Table 2b (additional results)): 8.52 to 9.52
- pIC50 ([3]; Table 2b (additional results)): 7.40 to 8.00
- MIC ([4]; Table 3b (additional results)): 0.25 to 1 µg/mL (≈ 0.421 to 1.68 µM)
- MIC ([5]; Table 3b (additional results)): 1.1 to 2 µg/mL (≈ 1.85 to 3.37 µM)
- MIC ([6]; Table 3b (additional results)): 0.25 to 1 µg/mL (≈ 0.421 to 1.68 µM)
